# Measured values from patent US7754749B2, “Derivatives of a 1-phenyltriazole” (BASF Aktiengesellschaft, priority 2005, dated 2010).
# Legend:
# Assay type in all cases: in vivo
# [1] = system: cowpea aphid (aphis craccivora); assay: Activity against cowpea aphid
# Description: 10. Activity against cowpea aphid (aphis craccivora)
# The active compounds were formulated in 50:50 acetone:water. Potted cowpea plants colonized with 100-150 aphids of various stages were sprayed after the pest population has been recorded. Population reduction was recorded after 24, 72, and 120 hours.
# [2] = system: brown planthopper (nilaparvata lugens); assay: Activity against brown planthopper; details: rice seedlings sprayed, recorded after 24, 72 and 120 hours
# Description: 9. Activity against brown planthopper (nilaparvata lugens)
# The active compounds were formulated in 50:50 acetone:water. Potted rice seedlings were sprayed with 10 ml test solution, air dried, placed in cages and inoculated with 10 adults. Percent mortality was recorded after 24, 72 and 120 hours.
# Tobacco Budworm = assay: Pesticidal action of synergistic mixtures, leaf dip bioassay on cotton leaves; details: Heliothis virescens, foliar, 120 h
# Description: (§1) 12. Pesticidal action of synergistic mixtures of compounds of formula I
# (§2) Potato plants for Colorado potato beetle and two-leaf cotton plants for tobacco budworm were utilized for bioassays. Excised plant leaves were dipped into 1:1 acetone/water dilutions of the active compounds. After the leaves had dried, they were individually placed onto water-moistened filter paper on the bottoms of Petri dishes. Each dish was infested with 5-7 larvae and covered with a lid. Each treatment dilution was replicated 4 times. Test dishes were held at approximately 27° C. and 60% humidity. Numbers of live and morbid larvae were assessed in each dish at 5 days after treatment application, and percent mortality was calculated.
# (§3) To determine if an insecticidal mixture was synergistic, Limpel's formula was used: E=X+Y−XY/100 • E=Expected % mortality of the mixture • X=% mortality of compound X, as measured independently • Y=% mortality of compound Y, as measured independently
# (§4) Synergism was evident if the % observed mortality for the mixture was greater than the % expected mortality.
# bean aphid (aphis fabae) = assay: Activity against bean aphid; details: 72 h
# Description: 7. Activity against bean aphid (aphis fabae)
# (§5) The active compounds were formulated in 50:50 acetone:water and 100 ppm Kinetic™ surfactant.
# Nasturtium plants grown in Metro mix in the 1st leaf-pair stage (variety ‘Mixed Jewle’) were infested with approximately 2-30 laboratory-reared aphids by placing infested cut plants on top of the test plants. The cut plants were removed after 24 hr. Each plant was dipped into the test solution to provide complete coverage of the foliage, stem, protruding seed surface and surrounding cube surface and allowed to dry in the fume hood. The treated plants were kept at about 25° C. with continuous fluorescent light. Aphid mortality was determined after 3 days.
# [3] = system: acrobat ant (Crematogaster spp.); assay: Activity via glass contact; details: rate of 10 ppm, 24 hours after treatment
# Description: (§6) 1. Activity against Argentine ant (Linepithema humile), harvester ant (Pogonomyrmex californicus), acrobat ant (Crematogaster spp.), carpenter ant (Camponotus floridanus), fire ant (Solenopsis invicta), house fly (Musca domestica), stable fly (Stomoxys calcitrans), flesh fly (Sarcophaga sp.), yellowfever mosquito (Aedes aegyptil), house mosquito (Culex quinquefasciatus), malaria mosquito (Anopheles albimanus), German cockroach (Blattella Germanica), cat flea (Ctenocephalides felis), and brown dog tick (Rhipicephalus sanguineus) via glass contact
# (§7) Glass vials were treated with 0.5 ml of a solution of active ingredient in acetone and allowed to dry. Insects or ticks were placed into each vial together with some food and moisture supply.
# [4] = system: house fly (Musca domestica); assay: Activity via glass contact; details: rate of 5 ppm, 24 hours after treatment
# Description: as §6, §7
# [5] = system: yellowfever mosquito (Aedes aegypti); assay: Activity via glass contact; details: rate of 0.1 ppm, 24 hours after treatment
# Description: as §6, §7
# [6] = system: German cockroach (Blattella Germanica); assay: Activity via glass contact; details: rate of 5 ppm, 24 hours after treatment
# Description: as §6, §7
# [7] = system: carpenter ant (Camponotus floridanus); assay: Activity via soil contact; details: 24 h, read-out: mortality of Camponotus floridanus
# Description: (§8) 2. Activity against Argentine ant (Linepithema humile), acrobat ant (Crematogaster spp.), carpenter ant (Camponotus floridanus), fire ant (Solenopsis invicta), and eastern subterranean termite (Reticulitermes flavipes) via soil contact
# For ants, tests were conducted in Petri dishes. A thin layer of 1% agar in water was dispensed into the dishes and Florida sandy soil was spread over the agar. The active ingredient was dissolved in acetone and dispensed over the sand. Dishes were vented to evaporate the acetone, infested with ants, and covered. A 20% honey water solution was placed in each dish. The dishes were maintained at 22° C. and observed for mortality at various time intervals.
# [8] = system: diamond back moth (plutella xylostella); assay: Activity against diamond back moth; details: in Brassica oleracea, foliar, 72 h
# Description: 11. Activity against diamond back moth (plutella xylostella)
# The active compounds were formulated in 50:50 acetone:water and 0.1% (vol/vol) Alkamuls EL 620 surfactant. A 6 cm leaf disk of cabbage leaves was dipped in the test solution for 3 seconds and allowed to air dry in a Petri plate lined with moist filter paper. The leaf disk was inoculated with 10 third instar larvae and kept at 25-27° C. and 50-60% humidity for 3 days. Mortality was assessed after 72 h of treatment.
# [9] = system: eastern subterranean termite (Reticulitermes flavipes); assay: Activity via soil contact; details: rate of 1 weight %, 3 days after treatment
# Description: as §8
# For termites, a thin layer of 1% agar was dispensed into Petri dishes. A thin layer of pre-treated soil was spread over the agar. For soil treatment, the active ingredient was diluted in acetone on a weight-to-weight basis and incorporated into the soil. Termite workers were introduced into each dish. Filter paper served as a food source. Test dishes were held at about 25° C. Termites were observed daily for mortality (dead or unable to stand upright and showing only weak movement).
# [10] = system: green peach aphid (Myzus persicae); assay: Activity against green peach aphid; details: 120 h, pepper leaves dipped, after 5 days, relative to check plants
# Description: 6. Activity against green peach aphid (Myzus persicae)
# as §5
# Pepper plants in the 2nd leaf-pair stage (variety ‘California Wonder’) were infested with approximately 40 laboratory-reared aphids by placing infested leaf sections on top of the test plants. The leaf sections were removed after 24 hr. The leaves of the intact plants were dipped into gradient solutions of the test compound and allowed to dry. Test plants were maintained under fluorescent light (24 hour photoperiod) at about 25° C. and 20-40% relative humidity. Aphid mortality on the treated plants, relative to mortality on check plants, was determined after 5 days.
# Colorado Potato Beetle = assay: Pesticidal action of synergistic mixtures, leaf dip bioassay on potato leaves; details: Leptinotarsa decemlineata, foliar, 120 h
# Description: as §1, §2, §3, §4
# [11] = system: eastern subterranean termite (Reticulitermes flavipes); assay: Activity via bait; details: rate of 0.005 weight %; three days after treatment; bait (treated filter paper)
# Description: 3. Activity against Argentine ant (Linepithema humile), acrobat ant (Crematogaster spp.), carpenter ant (Camponotus floridanus), fire ant (Solenopsis invicta), house fly (Musca domestica), eastern subterranean termite (Reticulitermes flavipes), Formosan subterranean termite (Coptotermes formosanus), and German cockroach (Blattella Germanica) via bait
# For termites, active ingredient in acetone was applied to filter papers. % a.i. were calculated on basis of the weight of the filter paper. Bioassays were conducted with one treated filter and ca. 30 termite workers per test Petri dish. Test dishes were maintained at 25° C. and observed daily for mortality (dead or moribund insects) or intoxication.
# [12] = system: cotton aphid (aphis gossypii); assay: Activity against cotton aphid; details: 120 h, cotton cotyledons dipped, after 5 days
# Description: 5. Activity against cotton aphid (aphis gossypii)
# as §5
# Cotton plants at the cotyledon stage (one plant per pot) were infested by placing a heavily infested leaf from the main colony on top of each cotyledon. The aphids were allowed to transfer to the host plant overnight, and the leaf used to transfer the aphids was removed. The cotyledons were dipped in the test solution and allowed to dry. After 5 days, mortality counts were made.
# [13] = system: silverleaf whitefly (bemisia argentifolii); assay: Activity against silverleaf whitefly; details: in Gossypium hirsutum, 72 h
# Description: 8. Activity against silverleaf whitefly (bemisia argentifolii)
# as §5
# Selected cotton plants were grown to the cotyledon state (one plant per pot). The cotyledons were dipped into the test solution to provide complete coverage of the foliage and placed in a well-vented area to dry. Each pot with treated seedling was placed in a plastic cup and 10 to 12 whitefly adults (approximately 3-5 day old) were introduced. The insects were colleted using an aspirator and an 0.6 cm, non-toxic Tygon® tubing (R-3603) connected to a barrier pipette tip. The tip, containing the collected insects, was then gently inserted into the soil containing the treated plant, allowing insects to crawl out of the tip to reach the foliage for feeding. The cups were covered with a reusable screened lid (150 micron mesh polyester screen PeCap from Tetko Inc). Test plants were maintained in the holding room at about 25° C. and 20-40% relative humidity for 3 days avoiding direct exposure to the fluorescent light (24 hour photoperiod) to prevent trapping of heat inside the cup. Mortality was assessed 3 days after treatment of the plants.
# [14] = dose rate 100 ppm, 5 days after treatment
# [15] = read-out: % Mortality of Tobacco Budworm
Structure (SMILES),mortality at 300 ppm [1] [%],mortality at 300 ppm [2] [%],mortality at 100 ppm (Tobacco Budworm; [14]) [%],"mortality at 300 ppm (Tobacco Budworm; dose rate 300 ppm, 5 days after treatment) [%]",mortality at 300 ppm (bean aphid (aphis fabae)) [%],mortality of Crematogaster spp. [3] [%],mortality at 5 ppm [4] [%],mortality at 0.1 ppm [5] [%],mortality at 5 ppm [6] [%],mortality at 10 ppm [7] [%],mortality at 300 ppm [8] [%],mortality of Reticulitermes flavipes [9] [%],mortality at 300 ppm [10] [%],mortality at 100 ppm (Colorado Potato Beetle; [14]) [%],mortality of Reticulitermes flavipes [11] [%],mortality at 300 ppm [12] [%],mortality at 300 ppm [13] [%],mortality at 0.03 ppm (Tobacco Budworm; [15]) [%],mortality at 0.06 ppm (Tobacco Budworm; [15]) [%],mortality at 0.06 ppm (Colorado Potato Beetle; read-out: % Mortality of Colorado Potato Beetle) [%]
"Cc1nc(C2CC2(Cl)Cl)nn1-c1c(Cl)cc(C(F)(F)F)cc1Cl (stereo not shown) [I-2, 1-(2,6-dichloro-4-trifluoromethylphenyl)-3-(2,2-dichlorocyclopropyl)-5-methyl-1,2,4-triazole]",100,100,–,–,–,–,–,–,–,–,–,–,–,–,–,–,–,–,–,–
"Cc1nc(C2(C)CC2(Cl)Cl)nn1-c1c(Cl)cc(C(F)(F)F)cc1Cl (stereo not shown) [I-3, 3-(2,2-Dichloro-1-methyl-cyclopropyl)-1-(2,6-dichloro-4-trifluoromethyl-phenyl)-5-methyl-1H-[1,2,4]triazole]",100,100,0,71.4,100,100,100,100,100,100,100,100,100,12.5,100,100,100,–,–,–
"CC1(C)C(C=C(Cl)Cl)C1C(=O)OC(C#N)c1cccc(Oc2ccccc2)c1 (stereo not drawn) [alpha-cypermethrin, reference compound]",–,–,–,–,–,–,–,–,–,–,–,–,–,–,–,–,–,0,7.2,17.5
